{
  "source": "patent US20230391808A1",
  "about": "“PHOSPHAPHENALENE-GOLD(I) COMPLEXES AS CHEMOTHERAPEUTIC AGENTS AGAINST GLIOBLASTOMA” (priority 2020, published 2023)",
  "key": {"thioredoxin reductase": {"molecular_target": "thioredoxin reductase (Homo sapiens, UniProt Q16881)", "sequence (Q16881 151-649 limits assumed)": "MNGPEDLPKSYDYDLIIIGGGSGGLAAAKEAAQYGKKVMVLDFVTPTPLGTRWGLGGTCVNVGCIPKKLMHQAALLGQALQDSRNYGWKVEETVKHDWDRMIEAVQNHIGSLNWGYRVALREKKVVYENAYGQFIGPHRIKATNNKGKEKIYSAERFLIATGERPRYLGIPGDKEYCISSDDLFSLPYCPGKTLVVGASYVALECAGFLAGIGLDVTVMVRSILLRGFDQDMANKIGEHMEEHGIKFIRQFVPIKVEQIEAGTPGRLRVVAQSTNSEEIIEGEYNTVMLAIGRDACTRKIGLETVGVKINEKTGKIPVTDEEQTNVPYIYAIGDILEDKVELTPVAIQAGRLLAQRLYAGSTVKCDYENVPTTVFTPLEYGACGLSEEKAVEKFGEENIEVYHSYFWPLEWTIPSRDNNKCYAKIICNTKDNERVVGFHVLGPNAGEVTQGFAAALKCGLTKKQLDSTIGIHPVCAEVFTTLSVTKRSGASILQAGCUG", "conditions": "Jortzik E. et al. 2014; cited from earlier work"}, "[1]": {"molecular_target": "human glutathione reductase (Homo sapiens, UniProt P00390)", "sequence (P00390 44-522)": "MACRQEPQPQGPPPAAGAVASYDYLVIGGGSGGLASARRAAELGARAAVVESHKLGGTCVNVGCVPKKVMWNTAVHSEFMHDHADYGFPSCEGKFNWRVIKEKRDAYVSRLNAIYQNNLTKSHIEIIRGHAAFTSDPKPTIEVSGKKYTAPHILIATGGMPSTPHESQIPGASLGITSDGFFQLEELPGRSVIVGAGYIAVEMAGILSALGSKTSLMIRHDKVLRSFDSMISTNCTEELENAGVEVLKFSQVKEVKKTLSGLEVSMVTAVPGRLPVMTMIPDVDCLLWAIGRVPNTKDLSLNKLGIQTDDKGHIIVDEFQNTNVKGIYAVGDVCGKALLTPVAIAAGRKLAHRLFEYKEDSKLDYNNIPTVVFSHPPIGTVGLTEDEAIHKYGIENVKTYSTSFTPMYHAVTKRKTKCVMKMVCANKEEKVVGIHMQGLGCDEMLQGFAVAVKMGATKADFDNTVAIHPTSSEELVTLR", "conditions": "Jortzik E. et al. 2014; cited from earlier work"}, "Solubility in solvents": {"assay": "Solubility in solvents", "assay_type": "physicochemical", "source_text": "Importantly, all compounds 1-4 readily dissolved in DMSO/H2O mixtures 1:9. Compound 1 was the least soluble and started to precipitate at concentrations higher than 0.1 M."}, "[2]": {"assay": "Stability in dimethylsulfoxide/H2O solutions", "assay_type": "physicochemical", "conditions": "over weeks"}, "NCH89 [3]": {"tested_on": "NCH89", "assay": "Annexin V apoptosis assay (flow cytometry), NCH89", "assay_type": "cell-based, human", "method": "(§1) It was further analyzed whether Compound 4 could sensitize GBM cells (NCH82 and NCH89) and GSCs (NCH421k, NCH644, and NCH660h) to apoptosis. The increase of apoptotic/necrotic cells with increasing concentrations of Compound 4 is illustrated in FIG. 3.\n(§2) Thus, after a 48 hour-incubation period with different concentrations of Compound 4, the conventional GBM cells and GSCs were analyzed by flow cytometry. Annexin V and propidium iodide (PI) were used as indicators for apoptosis/necrosis. In line with the obtained IC50 values listed in Table 2, NCH82 cells appeared to be the most sensitive GBM cell line.\n(§3) To quantitate the extent of apoptosis and necrosis, either annexin V staining combined with DAPI or double labeling of cells with annexin V and propidium iodide (PI) was used. The double labeling allows the distinction between apoptotic (annexin V^pos/DAPI^neg or annexin V^pos/PI^neg) and necrotic (annexin V^pos/DAPI^pos or annexin V^pos/PI^pos) cells. Cells were seeded in a 6-well plate (2.5×10^5/well) and left to attach overnight. Medium was replaced by fresh medium containing defined drug concentrations or compound solvent DMSO (untreated control) and incubated for 24 h. As positive control cells were treated with 1 μM of the apoptosis-inducing reagent staurosporin (#9953, Cell Signaling Technology, Danvas, USA). […]"}, "NCH82 [4]": {"tested_on": "NCH82", "assay": "Annexin V apoptosis assay (flow cytometry), NCH82", "assay_type": "cell-based, human", "conditions": "drug concentration of 2 μM, 48 hour-incubation (FIG. 3B)", "method": "as §2\nTo quantitate the extent of apoptosis and necrosis, either annexin V staining combined with DAPI or double labeling of cells with annexin V and propidium iodide (PI) was used. The double labeling allows the distinction between apoptotic (annexin V^pos/DAPI^neg or annexin V^pos/PI^neg) and necrotic (annexin V^pos/DAPI^pos or annexin V^pos/PI^pos) cells. […]\nAfter treatment supernatant containing apoptotic and necrotic cells was collected, cells were harvested, washed, and up to 1×10^6 cells were incubated with FITC-conjugated annexin V antibody diluted in 1:1000 DAPI solution following manufactures instructions (#51-65874X, BD Bioscienes, Franklin Lakes, USA) or incubated with FITC-conjugated annexin V antibody and PI for 15 min following manufacturer instructions (#51-65974X, BD Biosciences, Franklin Lakes, USA). Cells were acquired by flow cytometry using a BD LSRII flow cytometer (BD Bioscienes, Franklin Lakes, USA) and analyzed by FlowJo Software v7.6.5 (TreeStar, Ahland, USA)."}, "[5]": {"tested_on": "GSCs (NCH421k, NCH644, and NCH660h)", "assay": "Annexin V apoptosis assay (flow cytometry), GSCs", "assay_type": "cell-based, human", "conditions": "48 hour-incubation (FIG. 3C)", "method": "as §1, §2, §3"}, "[6]": {"tested_on": "NCH82, NCH89, NCH125, and NCH210 cells", "assay": "Wound-healing (scratch) assay, tumor cell migration", "assay_type": "cell-based, human", "method": "Besides an increased tumor cell proliferation, a highly invasive cell growth drives malignancy of GBM. To obtain a more complete picture of the anti-cancer action of the compounds according to the invention, the effects of compound 4 on GBM cell invasion were investigated using a conventional wound-healing assay with NCH82, NCH89, NCH125, and NCH210 cells.\nThe results of the wound-healing assay are depicted in FIG. 2. […] The cells were imaged at 0 hours (t0) and at 24 hours (t1) after introducing the scrape. Cell migration was assessed by measuring cell-free areas at t0 and their reduction at t1.\nTo assess the effect of the drugs on cell migration in vitro cells were seeded in 6-well plates (5×10^5/Well) and left to attach. On the next day the cell monolayer was scraped in a straight line to create a “scratch” with a p200 pipet tip. […] Phase contrast images were acquired at 0 h and after 12 h of exposure to the respective drug concentration using a BX50 microscope with a SC30 camera (both Olympus, Tokyo, Japan). The cell-free areas at both time points were quantified and compared using the imaging software cellSens (Olympus, Tokyo, Japan)."}, "NCH149": {"tested_on": "NCH149", "assay": "Crystal violet proliferation assay, NCH149", "assay_type": "cell-based, human", "conditions": "glioblastoma cell line, 48 h exposure, mean of three biological replicates ± standard deviation", "method": "In order to investigate the role of the fused phosphaphenalene ring in the bio-activity of the drug, the ability of Compound 5 to inhibit cell proliferation in the glioblastoma cell lines NCH82, NCH89 and NCH149 was examined. For this purpose, cells were incubated with increasing concentrations of Compound 5 and cell proliferation was evaluated by crystal violet assay.\nThe effect of different compounds on cell growth was evaluated by the crystal violet method as described earlier (J. P. Rigalli et al., Cancer Lett. 2016, 376, 165-172). Briefly, cells were seeded in 96-well plates (10,000 cells/well). After 24 h cell culture medium was replaced by fresh compound-containing medium (ten different concentrations (0.01 to 200 μM μM)). After 48 h of exposure extent of cell proliferation inhibition was determined by crystal violet staining of surviving cells. Therefore, cells were washed and stained with 0.5% crystal violet solution (2.5 g in 100 ml methanol, diluted with 400 ml aqua bidest) for 15 min, rinsed and dried overnight.\nNext, crystal violet was solubilized in methanol and absorbance was measured at 555 nm. The proliferative index was calculated as crystal violet absorption intensity as percentage relative to baseline (no cells) as described before (T. Peters et al., Naunyn Schmiedebergs Arch Pharmacol. 2006, 372, 291-299.) Cell survival plotted against the decimal logarithm of drug concentration in μM (c (of compound x) in μM) and fitted to a sigmoidal dose-response curve using Graph Pad Prism 7.02 (GraphPad Software, San Diego, USA)."}, "NCH82 [7]": {"tested_on": "NCH82", "assay": "Crystal violet proliferation assay, NCH82", "assay_type": "cell-based, human", "conditions": "glioblastoma cell line, 48 h exposure, mean of three biological replicates ± standard deviation"}, "NCH89 [8]": {"tested_on": "NCH89", "assay": "Crystal violet proliferation assay, NCH89", "assay_type": "cell-based, human", "conditions": "glioblastoma cell line, 48 h exposure, mean of three biological replicates ± standard deviation"}, "[9]": {"assay": "Stability under controlled thermodynamic conditions upon repetitive cycles of illumination", "assay_type": "physicochemical", "conditions": "data not shown"}, "NCH89 [10]": {"tested_on": "NCH89", "conditions": "Deponte M. et al. 2005; read-out: IC50, proliferation of NCH89; cited from earlier work"}, "NCH82 [11]": {"tested_on": "NCH82", "conditions": "Deponte M. et al. 2005; read-out: IC50, proliferation of NCH82; cited from earlier work"}},
  "note": "Read-outs that look alike come from different tables or passages of the source.",
  "data": [
    {"molecule": "1-phenyl-bis(2-pyridyl)phosphole gold chloride thio-β-d-glucose tetraacetate [GoPI-sugar]", "values": [
      {"measurement": "IC50", "setting": "thioredoxin reductase", "value": 4.3, "unit": "nM"},
      {"measurement": "IC50", "setting": "[1]", "value": 88.5, "unit": "nM"}
    ]},
    {"molecule": "[Cl][Au][PH]1(c2ccccc2)c2cscc2-c2cccc3cccc1c23", "note": "[Compound 1]", "values": [
      {"measurement": "concentration above which precipitation starts", "setting": "Solubility in solvents; DMSO/H2O mixtures 1:9", "value": "higher than 0.1 M"},
      {"measurement": "stability in dimethylsulfoxide/H2O solutions", "setting": "[2]", "value": "high stability"}
    ]},
    {"molecule": "CC(=O)OCC1OC([S][Au][PH]2(c3ccccc3)c3cscc3-c3cccc4cccc2c34)C(OC(C)=O)C(OC(C)=O)C1OC(C)=O", "note": "(stereo not drawn) [Compound 4]", "values": [
      {"measurement": "apoptotic/necrotic cells, NCH89", "setting": "NCH89 [3]; 1 μM, 2 μM, and 10 μM for 24 hours (FIG. 3A)", "value": "dose-dependent increase of apoptotic/necrotic cells"},
      {"measurement": "cell death, NCH89", "setting": "NCH89 [3]; concentration of 2 μM, 48 hour-incubation (FIG. 3B)", "value": "no cell death"},
      {"measurement": "solubility in methanol, ethanol, DCM, CHCl3, Et2O and acetone", "setting": "Solubility in solvents", "value": "soluble"},
      {"measurement": "solubility in pentane and hexane", "setting": "Solubility in solvents", "value": "insoluble"},
      {"measurement": "induction of apoptosis, NCH82", "setting": "NCH82 [4]", "value": "induced apoptosis in a high percentage of cells"},
      {"measurement": "induction of apoptosis, GSCs", "setting": "[5]", "value": "induction of apoptosis could be demonstrated but to a lesser extent"},
      {"measurement": "wound closure compared to untreated control cells", "setting": "[6]; at least the corresponding IC50 concentrations, 24 hours", "value": "significantly decreased wound closure"},
      {"measurement": "wound closure", "setting": "[6]; concentrations c(IC50)/2 and c(IC50)/10, 24 hours", "value": "not significantly affected"}
    ]},
    {"molecule": "Cn1ccc2c1-c1cccc3cccc(c13)[P+]2([Au-][Cl])c1ccccc1", "note": "(stereo not drawn) [Compound 5]", "values": [
      {"measurement": "IC50", "setting": "NCH149", "value": 8.87, "unit": "µM"},
      {"measurement": "IC50", "setting": "NCH82 [7]", "value": 8.1, "unit": "µM"},
      {"measurement": "IC50", "setting": "NCH89 [8]", "value": 15.1, "unit": "µM"}
    ]},
    {"molecule": "CC(=O)OC[C@H]1O[C@@H]([S][Au-][P+]2(c3ccccc3)c3ccn(S(=O)(=O)c4ccccc4)c3-c3cccc4cccc2c34)[C@H](OC(C)=O)[C@@H](OC(C)=O)[C@@H]1OC(C)=O", "note": "(stereo partly drawn) [Compound 8]", "values": [
      {"measurement": "stability upon repetitive cycles of illumination", "setting": "[9]", "value": "very high stability"},
      {"measurement": "IC50", "setting": "NCH149", "value": 2.85, "unit": "µM"},
      {"measurement": "IC50", "setting": "NCH82 [7]", "value": 1.37, "unit": "µM"},
      {"measurement": "IC50", "setting": "NCH89 [8]", "value": 4.49, "unit": "µM"}
    ]},
    {"molecule": "[Cl][Au][PH]1(c2ccccc2)C(c2ccccn2)=CC=C1c1ccccn1", "note": "[GoPI, [1-phenyl-2,5-di(2-pyridyl)phosphole]AuCl]", "values": [
      {"measurement": "IC50", "setting": "NCH89 [10]", "value": "10.8 ± 0.8", "unit": "µM"},
      {"measurement": "IC50", "setting": "NCH82 [11]", "value": "12.5 ± 0.8", "unit": "µM"}
    ]}
  ]
}
